Reference: publication PMC10303271, “Synthesis and Receptor Binding Studies of α5 GABAAR Selective Novel Imidazodiazepines Targeted for Psychiatric and Cognitive Disorders” (Molecules, 2023)
Like-named read-outs stand apart in the source and are kept apart here.

Columns and labels:
BZP rat brain site = experiment: PDSP binding at BZP rat brain site; settings: for BZP Rat Brain Site, PDSP raw data, mean: primary binding, 10,000 nM, last figure of the line = mean of the 4 before it; for Ki: N = 2, read-out: Binding Affinity BZR Secondary Screening Ki; for Ki / Binding Affinity BZR % Inhibition (Primary): rat brain; for Binding Affinity BZR % Inhibition (Primary): at 10,000 nM, N = 5
Protocol: The BZR binding affinity of the test compounds was also measured using rat brain BzR. […] The efficacy of imidazodiazepines on the benzodiazepine receptor depends on various factors, including the specific subtype of the receptor they bind to, their chemical structure, and the dose.
(§1) The NIMH PDSP assay protocol book [https://kidbdev.med.unc.edu/databases/PDSP%20Protocols%20II%202013-03-28.pdf accessed on 23 April 2023]. describes the protocols for primary and secondary radio-ligand binding assays. These assays were carried out in a final volume of 125 µL per well in the appropriate binding buffer.
(§2) The binding of a ligand to a receptor, ion channel, or transporter was determined in the […] of 10 µM of the appropriate reference compound. […] Plates were incubated in the dark for 90 min at rt, and the reactions were stopped by vacuum filtration onto 0.3% polyethyleneimine (PEI) soaked 96-well filter mats using a 96-well Filtermateharvester. This was followed by three washes with cold PBS buffer. Radioactivity was then counted on a Microbeta counter. Nonlinear regression was used to analyze the data with N = 6 replicates.

5-HT2B = target: T1, 5-HT2B (Homo sapiens, UniProt P41595); experiment: PDSP primary binding 5-HT2B; settings: 1.5 h; primary binding, 10,000 nM; last figure of the line = mean of the 4 before it; read-out: 5-HT2B, PDSP raw data, mean
T1 construct: purchased NIMH Psychoactive Drug Screening Program (PDSP)
T1 sequence (P41595 whole entry): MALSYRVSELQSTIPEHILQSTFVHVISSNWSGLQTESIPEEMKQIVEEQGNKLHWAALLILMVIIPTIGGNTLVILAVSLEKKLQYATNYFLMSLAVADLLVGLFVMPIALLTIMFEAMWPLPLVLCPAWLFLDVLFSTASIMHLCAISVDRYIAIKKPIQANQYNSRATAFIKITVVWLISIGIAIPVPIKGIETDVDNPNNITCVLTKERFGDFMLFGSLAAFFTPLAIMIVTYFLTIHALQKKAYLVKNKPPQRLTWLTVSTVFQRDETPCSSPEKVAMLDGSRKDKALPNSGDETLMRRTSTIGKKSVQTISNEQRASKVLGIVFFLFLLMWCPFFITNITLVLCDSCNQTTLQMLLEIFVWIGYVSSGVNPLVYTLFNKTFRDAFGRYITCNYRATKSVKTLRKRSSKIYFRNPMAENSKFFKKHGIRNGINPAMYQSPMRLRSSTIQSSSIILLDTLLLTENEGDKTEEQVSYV
Protocol: (§3) To determine if any off-target receptor-binding effects are present, all the novel ligands were sent to the National Institute of Mental Health (NIMH), Psychoactive Drug Screening Program (PDSP). The ligands were screened over a panel of 47 receptors, ion channels, and transporters to determine any other possible interactions with […]. The hERG-binding was also determined. […] No binding of the test compounds to calcium channels was observed. […] It is necessary to screen the compounds for hERG-binding during the early process of drug discovery. The unintentional binding of many drugs to hERG can cause blockade of hERG K+ channels in the heart, which can cause many side effects including cardiac arrhythmias and sudden death. […] All of the α5 imidazodiazepines were tested for hERG-binding.
as §1, §2

Alpha2Beta4 = target: T2, Alpha2Beta4 (Rattus norvegicus, UniProt P12389+P12392); experiment: PDSP primary binding Alpha2Beta4; settings: primary binding, 10,000 nM; last figure of the line = mean of the 4 before it; read-out: Alpha2Beta4, PDSP raw data, mean
T2 construct: purchased NIMH Psychoactive Drug Screening Program (PDSP)
T2 sequence (P12389 28-511): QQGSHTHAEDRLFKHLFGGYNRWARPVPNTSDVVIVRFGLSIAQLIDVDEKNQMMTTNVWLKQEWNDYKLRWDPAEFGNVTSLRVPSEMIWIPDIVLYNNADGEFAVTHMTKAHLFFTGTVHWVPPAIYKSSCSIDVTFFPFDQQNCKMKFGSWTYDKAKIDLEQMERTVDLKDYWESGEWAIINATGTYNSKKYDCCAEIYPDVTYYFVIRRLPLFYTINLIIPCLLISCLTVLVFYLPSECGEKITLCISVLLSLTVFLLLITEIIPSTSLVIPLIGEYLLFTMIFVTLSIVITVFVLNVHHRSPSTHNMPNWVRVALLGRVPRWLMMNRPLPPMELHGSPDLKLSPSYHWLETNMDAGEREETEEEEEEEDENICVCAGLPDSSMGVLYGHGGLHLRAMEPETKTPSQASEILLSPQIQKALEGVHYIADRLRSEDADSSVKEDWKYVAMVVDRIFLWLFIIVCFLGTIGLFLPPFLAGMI
T2 sequence (P12392 21-495): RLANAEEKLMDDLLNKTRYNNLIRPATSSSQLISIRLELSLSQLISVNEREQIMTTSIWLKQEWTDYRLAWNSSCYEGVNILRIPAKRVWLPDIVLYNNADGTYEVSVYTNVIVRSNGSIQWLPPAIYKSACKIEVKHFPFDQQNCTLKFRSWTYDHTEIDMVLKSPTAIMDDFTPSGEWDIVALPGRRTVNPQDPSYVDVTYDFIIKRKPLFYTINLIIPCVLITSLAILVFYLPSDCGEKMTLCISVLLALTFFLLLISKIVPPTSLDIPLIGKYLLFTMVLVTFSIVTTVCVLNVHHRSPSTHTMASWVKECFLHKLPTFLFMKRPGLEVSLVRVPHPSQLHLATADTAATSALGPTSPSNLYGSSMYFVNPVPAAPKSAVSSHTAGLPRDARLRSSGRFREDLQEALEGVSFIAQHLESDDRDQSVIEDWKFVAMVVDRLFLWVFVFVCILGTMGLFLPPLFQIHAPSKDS
Protocol: as §3, §1, §2

D2 = target: T3, D2 (Homo sapiens, UniProt P14416); experiment: PDSP primary binding D2; settings: 1.5 h; primary binding, 10,000 nM; last figure of the line = mean of the 4 before it; read-out: D2, PDSP raw data, mean
T3 construct: purchased NIMH Psychoactive Drug Screening Program (PDSP)
T3 sequence (P14416 whole entry): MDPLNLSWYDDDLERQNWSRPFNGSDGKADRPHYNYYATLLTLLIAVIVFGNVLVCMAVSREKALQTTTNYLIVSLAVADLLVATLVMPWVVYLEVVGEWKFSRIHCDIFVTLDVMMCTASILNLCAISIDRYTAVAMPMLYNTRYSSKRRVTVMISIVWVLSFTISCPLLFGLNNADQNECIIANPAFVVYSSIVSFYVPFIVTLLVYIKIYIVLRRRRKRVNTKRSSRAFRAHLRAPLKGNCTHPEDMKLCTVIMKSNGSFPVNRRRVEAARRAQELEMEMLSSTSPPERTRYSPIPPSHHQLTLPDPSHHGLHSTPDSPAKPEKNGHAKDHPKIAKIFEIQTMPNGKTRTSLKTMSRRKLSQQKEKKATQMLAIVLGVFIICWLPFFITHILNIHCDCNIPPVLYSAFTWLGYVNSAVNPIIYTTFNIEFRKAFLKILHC
Protocol: as §3, §1, §2

V1A = target: T4, V1A (Homo sapiens, UniProt P37288); experiment: PDSP primary binding V1A; settings: primary binding, 10,000 nM; last figure of the line = mean of the 4 before it; read-out: V1A, PDSP raw data, mean
T4 construct: purchased NIMH Psychoactive Drug Screening Program (PDSP)
T4 sequence (P37288 whole entry): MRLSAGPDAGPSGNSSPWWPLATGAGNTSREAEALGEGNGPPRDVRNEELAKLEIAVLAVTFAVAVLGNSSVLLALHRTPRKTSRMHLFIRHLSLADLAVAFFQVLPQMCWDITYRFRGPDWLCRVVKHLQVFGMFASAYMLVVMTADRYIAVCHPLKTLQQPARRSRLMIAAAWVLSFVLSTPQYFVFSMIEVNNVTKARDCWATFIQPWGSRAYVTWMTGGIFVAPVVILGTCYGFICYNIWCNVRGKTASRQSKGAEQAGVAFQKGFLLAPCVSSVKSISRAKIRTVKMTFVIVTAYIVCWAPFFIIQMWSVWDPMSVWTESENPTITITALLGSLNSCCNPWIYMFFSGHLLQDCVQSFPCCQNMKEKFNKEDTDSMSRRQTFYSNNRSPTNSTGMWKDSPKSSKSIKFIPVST
Protocol: as §3, §1, §2

Alpha7 = experiment: PDSP primary binding Alpha7; settings: primary binding, 10,000 nM; last figure of the line = mean of the 4 before it
Protocol: as §3, §1, §2

[1] = target: peripheral benzodiazepine receptors (PBR) (Rattus norvegicus, UniProt P16257); experiment: PDSP radioligand binding at PBR
Sequence of peripheral benzodiazepine receptors (PBR) (P16257 whole entry): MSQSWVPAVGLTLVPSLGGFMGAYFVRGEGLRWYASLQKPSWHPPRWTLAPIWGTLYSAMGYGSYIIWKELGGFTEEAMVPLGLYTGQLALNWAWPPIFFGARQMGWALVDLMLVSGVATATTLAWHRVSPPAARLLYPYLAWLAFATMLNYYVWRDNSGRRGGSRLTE
Description: The compounds were also screened at PDSP to determine any binding with peripheral benzodiazepine receptors (PBR). A number of biological processes are associated with PBR. The most prevalent are transportation of anions for mitochondrial transmembrane potential, biosynthesis of heme, regulation of neurological damage, proliferation, cell death (apoptosis), as well as regulation of steroidogenesis. The test compounds were screened in the primary binding assay to determine the % inhibition at PBR. […] These compounds were then subjected to a secondary screening to determine the Ki (nM) value for PBR receptors.
as §1, §2

H3 = target: T5, H3 (Homo sapiens, UniProt Q9Y5N1); experiment: PDSP primary binding H3; settings: primary binding, 10,000 nM; last figure of the line = mean of the 4 before it; read-out: H3, PDSP raw data, mean
T5 construct: purchased NIMH Psychoactive Drug Screening Program (PDSP)
T5 sequence (Q9Y5N1 whole entry): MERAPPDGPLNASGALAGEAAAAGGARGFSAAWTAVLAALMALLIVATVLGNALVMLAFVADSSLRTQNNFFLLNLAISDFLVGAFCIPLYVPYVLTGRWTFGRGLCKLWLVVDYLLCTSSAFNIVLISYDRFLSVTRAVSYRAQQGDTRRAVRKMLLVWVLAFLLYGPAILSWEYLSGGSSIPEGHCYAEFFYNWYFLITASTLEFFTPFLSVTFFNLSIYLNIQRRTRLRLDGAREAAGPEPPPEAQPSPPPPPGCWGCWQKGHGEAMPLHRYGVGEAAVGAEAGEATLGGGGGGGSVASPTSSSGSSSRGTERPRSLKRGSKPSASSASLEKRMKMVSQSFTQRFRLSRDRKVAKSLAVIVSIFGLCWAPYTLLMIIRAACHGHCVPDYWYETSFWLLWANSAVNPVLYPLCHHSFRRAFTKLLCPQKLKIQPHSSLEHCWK
Protocol: as §3, §1, §2

V1B = target: T6, V1B (Homo sapiens, UniProt P47901); experiment: PDSP primary binding V1B; settings: primary binding, 10,000 nM; last figure of the line = mean of the 4 before it; read-out: V1B, PDSP raw data, mean
T6 construct: purchased NIMH Psychoactive Drug Screening Program (PDSP)
T6 sequence (P47901 1-424): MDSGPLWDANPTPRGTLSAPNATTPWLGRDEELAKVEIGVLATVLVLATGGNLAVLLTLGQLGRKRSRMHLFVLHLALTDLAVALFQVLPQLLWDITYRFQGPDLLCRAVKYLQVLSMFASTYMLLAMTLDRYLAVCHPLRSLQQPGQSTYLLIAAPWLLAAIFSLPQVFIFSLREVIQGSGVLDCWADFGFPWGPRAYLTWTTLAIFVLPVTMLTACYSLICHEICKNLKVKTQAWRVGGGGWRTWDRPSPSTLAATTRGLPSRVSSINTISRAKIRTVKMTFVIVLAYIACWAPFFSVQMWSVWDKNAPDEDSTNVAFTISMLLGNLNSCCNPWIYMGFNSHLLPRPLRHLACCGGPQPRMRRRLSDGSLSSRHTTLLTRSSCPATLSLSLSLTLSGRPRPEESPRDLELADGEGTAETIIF
Protocol: as §3, §1, §2

Alpha2C = target: T7, Alpha2C (Homo sapiens, UniProt P18825); experiment: PDSP primary binding Alpha2C; settings: 1.5 h; primary binding, 10,000 nM; last figure of the line = mean of the 4 before it; read-out: Alpha2C, PDSP raw data, mean
T7 construct: purchased NIMH Psychoactive Drug Screening Program (PDSP)
T7 sequence (P18825 1-462): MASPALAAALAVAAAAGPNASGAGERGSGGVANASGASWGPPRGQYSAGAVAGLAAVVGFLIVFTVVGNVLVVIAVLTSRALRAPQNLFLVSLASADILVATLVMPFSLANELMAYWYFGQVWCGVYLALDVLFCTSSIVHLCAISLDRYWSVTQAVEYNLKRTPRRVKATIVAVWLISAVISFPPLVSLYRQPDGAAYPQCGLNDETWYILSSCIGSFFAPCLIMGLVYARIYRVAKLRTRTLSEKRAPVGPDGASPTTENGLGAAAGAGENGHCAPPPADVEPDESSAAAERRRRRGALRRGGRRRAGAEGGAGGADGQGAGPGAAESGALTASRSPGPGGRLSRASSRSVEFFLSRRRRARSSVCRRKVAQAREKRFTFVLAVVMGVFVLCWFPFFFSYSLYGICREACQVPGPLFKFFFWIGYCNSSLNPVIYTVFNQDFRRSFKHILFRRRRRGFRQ
Protocol: as §3, §1, §2

[2] = 1.5 h, primary binding, 10,000 nM, last figure of the line = mean of the 4 before it, some tables list PBR twice, read-out: PBR, PDSP raw data, mean
[3] = at 10,000 nM, N = 5, read-out: Binding Affinity at PBR % Inhibition (Primary)

Row | Structure (SMILES) | BZP Rat Brain Site, PDSP raw data, mean (BZP rat brain site) | inhibition at 10 µM (5-HT2B) | inhibition at 10 µM (Alpha2Beta4) | inhibition at 10 µM (D2) | inhibition at 10 µM (V1A) | Alpha7, PDSP raw data, mean (Alpha7) | Ki [1] | inhibition at 10 µM [1, 2] | inhibition at 10 µM [1, 3] | inhibition at 10 µM (H3) | inhibition at 10 µM (V1B) | inhibition at 10 µM (Alpha2C) | Ki (BZP rat brain site) | Binding Affinity BZR % Inhibition (Primary) (BZP rat brain site) | Ki ([1]; N = 2, read-out: Binding Affinity at PBR Ki (Secondary Screen))
1 | CC(C)c1noc(-c2ncn3c2[C@@H](C)N=C(c2ccccc2F)c2cc(Cl)ccc2-3)n1 [Compound 37, (R)-5-(8-Chloro-6-(2′-fluorophenyl)-4-methyl-4H-benzo[f]imidazo[1,5-a][1,4]diazepin-3-yl)-3-isopropyl-1,2,4-oxadiazole] | 74.07% | 8.56% | -5.48% | 18.2% | -10.1% | 21.26% | 838 ± 135 nM | 89.6% | 88 ± 1.32% | 6.42% | -15.4% | 2.74% | – | – | –
2 | C[C@H]1N=C(c2ccccc2F)c2cc(Cl)ccc2-n2cnc(-c3nc(C4CC4)no3)c21 [Compound 38, (R)-5-(8-Chloro-6-(2′-fluorophenyl)-4-methyl-4H-benzo[f]imidazo[1,5-a][1,4]diazepin-3-yl)-3-cyclopropyl-1,2,4-oxadiazole] | 88.28% | 10% | 0.54% | 21.8% | 4.3% | 11.55% | 617 ± 27.1 nM | 89.5% | 90 ± 2.13% | 3.21% | -7.2% | 9.93% | – | – | –
3 | C#Cc1ccc2c(c1)C(c1ccccc1Cl)=N[C@H](C)c1c(C(=O)NC)ncn1-2 [Compound 21, (R)-6-(2′-Chlorophenyl)-8-ethynyl-N,4-dimethyl-4H-benzo[f]imidazo[1,5-a][1,4]diazepine-3-carboxamide] | – | -5.07% | 7.67% | -4.19% | 35.1% | -10.85% | – | 5.68% | – | 4.81% | 45.8% | -1.39% | 77.7 ± 2.93 nM | 94.96 ± 2.06% | –
4 | C#Cc1ccc2c(c1)C(c1ccccc1Cl)=N[C@H](C)c1c(C(=O)N(C)CC)ncn1-2 [Compound 29] | – | 30% | 3.06% | -1.58% | 8.93% | -2.05% | – | -10.9% | – | -29.5% | 11% | 19.9% | 394 ± 40.2 nM | 87.49 ± 2.75% | –
5 | CCc1noc(-c2ncn3c2[C@@H](C)N=C(c2ccccc2F)c2cc(C4CC4)ccc2-3)n1 [Compound 46, (R)-5-(8-Cyclopropyl-6-(2′-fluorophenyl)-4-methyl-4H-benzo[f]imidazo[1,5-a][1,4]diazepin-3-yl)-3-ethyl-1,2,4-oxadiazole] | – | 25.1% | 6.41% | 4.73% | -6.74% | 4.57% | 627.3 ± 5.72 nM | 86.4% | 86.4 ± 6.35% | -6.39% | 2.67% | 11.9% | 3790 ± 632 nM | 65.25 ± 5.33% | –
6 | CCc1noc(-c2ncn3c2CN=C(c2ccccc2F)c2cc(C4CC4)ccc2-3)n1 [Compound 44, 5-(8-Cyclopropyl-6-(2′-fluorophenyl)-4H-benzo[f]imidazo[1,5-a][1,4]diazepin-3-yl)-3-ethyl-1,2,4-oxadiazole] | – | 18.5% | 8.23% | 0.67% | 21.3% | -24.22% | – | 71% | – | 7.26% | 35.7% | 15.7% | 194 ± 62.7 nM | 96.52 ± 2.57% | –
7 | CCc1noc(-c2ncn3c2[C@@H](C)N=C(c2ccccc2F)c2cc(Cl)ccc2-3)n1 [Compound 36, (R)-5-(8-Chloro-6-(2′-fluorophenyl)-4-methyl-4H-benzo[f]imidazo[1,5-a][1,4]diazepin-3-yl)-3-ethyl-1,2,4-oxadiazole] | 81.81% | 3.47% | 10.9% | 3.17% | 27.6% | -13.86% | 982 ± 405 nM | 57.2% | 57.2 ± 10.3% | -0.81% | 22.9% | 1.43% | 590 ± 44.6 nM | – | –
8 | CCc1noc(-c2ncn3c2[C@@H](C)N=C(c2ccccc2F)c2cc(-c4ccccc4)ccc2-3)n1 [Compound 35, (R)-3-Ethyl-5-(6-(2′-fluorophenyl)-4-methyl-8-phenyl-4H-benzo[f]imidazo[1,5-a][1,4]diazepin-3-yl)-1,2,4-oxadiazole] | – | 13.8% | 10.7% | 7.47% | 3.9% | -23.18% | – | 71.8% | 71.8 ± 10.5% | 4.89% | 21% | 31.6% | – | 19.91 ± 7.21% | 1110 ± 24.5 nM
